Consider three molecules from article PMC12484987 (Scientific Reports, 2025).

Each structure is given as a SMILES string. Several values for one entry are separate records, joined by “and”; a condition that tells them apart may be missing. Equal values may be shown once. Read-outs that look alike come from different tables or passages of the source. Some results are limits rather than exact numbers.

The test system of data set [1] is HL-60 (promyeloblast). The settings on record: read-out: IC50 cytotoxicity; cited from earlier work.
Data set [2] has as its system MOLT-3 (Acute lymphoblastic leukemia). The settings on record: read-out: IC50 cytotoxicity; cited from earlier work.
Data set [3] concerns the target T1, HIV-1 RT (Human immunodeficiency virus type 1 group M subtype B, UniProt P04585). The settings on record: quinolines of the previous publication, cited from earlier work.
Data set [4] concerns HeLa (Cervical carcinoma). The settings on record: read-out: IC50 cytotoxicity; cited from earlier work.
Data set [5] relates to A549 (Lung carcinoma). Kind of data set: cells. Conditions: Homo sapiens, A549, 48 h, read-out: IC50 cytotoxic activity.
Data set [6] concerns MOLT-3 (Acute lymphoblastic leukemia). The settings on record: MOLT-3, at maximum tested concentration of 50 µg/mL.
The subject of data set [7] is MRC-5 (normal embryonic lung cell). The settings on record: MRC-5, at maximum tested concentration of 50 µg/mL.
Data set [8] has as its system HL-60 (promyeloblast). The settings on record: HL-60, at maximum tested concentration of 50 µg/mL.
Data set [9] concerns HepG2 (Hepatocarcinoma). Nature of the data set: cells. The settings on record: Homo sapiens, HepG2, 48 h, read-out: IC50 cytotoxic activity.
For data set [10], the system named is MDA-MB-231 (Hormone-independent breast cancer). Kind of data set: cells. The settings on record: Homo sapiens, MDA-MB-231, 48 h, read-out: IC50 cytotoxic activity.
For data set [11], the system named is HeLa (Cervical carcinoma). The settings on record: HeLa, at maximum tested concentration of 50 µg/mL.
Data set [12] has as its system HepG2 (Hepatocarcinoma). Conditions: HepG2, at maximum tested concentration of 50 µg/mL.
In data set [13] the test system is S102 (Thai liver cancer). Kind of data set: cells. Conditions: Homo sapiens, 48 h, read-out: IC50 cytotoxic activity.
The subject of data set [14] is A549 (Lung carcinoma). Conditions: A549, at maximum tested concentration of 50 µg/mL.
Data set [15] has as its system H69AR (Lung cancer, multidrug resistance). The settings on record: H69AR, at maximum tested concentration of 50 µg/mL.
Data set [16] deals with T47-D (Hormone-dependent breast cancer). Kind of data set: cells. The settings on record: Homo sapiens, T47D, 48 h, read-out: IC50 cytotoxic activity.
In data set [17] the test system is S102 (Thai liver cancer). Conditions: S102, at maximum tested concentration of 50 µg/mL.
In data set [18] the test system is MOLT-3 (Acute lymphoblastic leukemia). Kind of data set: cells. Conditions: Homo sapiens, MOLT-3, 48 h, read-out: IC50 cytotoxic activity.
Data set [19] concerns HuCCA-1 (Cholangiocarcinoma). Nature of the data set: cells. Conditions: Homo sapiens, HuCC-A1, 48 h, read-out: IC50 cytotoxic activity.
Data set [20] has as its system H69AR (Lung cancer, multidrug resistance). Nature of the data set: cells. Conditions: Homo sapiens, 48 h, read-out: IC50 cytotoxic activity.
In data set [21] the test system is HuCCA-1 (Cholangiocarcinoma). Conditions: HuCCA-1, at maximum tested concentration of 50 µg/mL.
Data set [22] relates to MDA-MB-231 (Hormone-independent breast cancer). Conditions: MDA-MB-231, at maximum tested concentration of 50 µg/mL.
Data set [23] concerns HeLa (Cervical carcinoma). Nature of the data set: cells. Conditions: Homo sapiens, 48 h, read-out: IC50 cytotoxic activity.
The subject of data set [24] is HL-60 (promyeloblast). Nature of the data set: cells. The settings on record: Homo sapiens, HL-60, 48 h, read-out: IC50 cytotoxic activity.
The next data set can be described thus: in vitro. The settings on record: human, MRC-5 cells (normal embryonic lung cells).
For data set [25], the system named is T47-D (Hormone-dependent breast cancer). The settings on record: T47-D, at maximum tested concentration of 50 µg/mL.
For data set [26], the target named is T1, HIV-1 RT. Kind of data set: HIV-1 RT inhibition assay. Type of data set: biochemical.

For the molecule `Cc1cc(C=O)cc(C)c1Oc1cc(Nc2ccc(C#N)cn2)nc2ccccc12` [4-(2’,6’-dimethyl-4’-formylphenoxy)−2-(5’’-cyanopyridin-2’’ylamino)quinoline], the IC50 (as a rule, the concentration needed to halve the response being measured) in the data set with HL-60 (promyeloblast) [1] is 20.5 µM; in data set [2], 12.7 µM; on HIV-1 RT [3] (read-out: IC50 against HIV-1 RT), 1.93 µM; in [4], 25.7 µM. In addition, the “percentage inhibition against HIV-1 RT” value at HIV-1 RT [3] is 44% and 44.5%.

As to `Cc1ccnc2c1NC(=O)c1cccnc1N2C1CC1` [NVP, nevirapine, reference compound], the IC50 (in the data set on A549 (Lung carcinoma) [5]; in the data set with HepG2 (Hepatocarcinoma) [9]; in [10]; with S102 (Thai liver cancer) [13]; in data set [16]; in data set [18]) was above 188 µM each time. Further, the IC50 (in data set [19]; in [20]; in [23]; in the data set on HL-60 (promyeloblast) [24]) was above 188 µM each time. The Percentage cytotoxicity was found to be 29% in data set [6]; 1% in data set [7]; 3% in the data set with HL-60 (promyeloblast) [8]; 34% in data set [11]; 15% in the data set on HepG2 (Hepatocarcinoma) [12]; 18% in the data set with A549 (Lung carcinoma) [14]. The Percentage cytotoxicity in [15] is listed as 8%; with S102 (Thai liver cancer) [17] it was 3%; in [21], 11%; in [22], 9%; in data set [25] it was 14%. Besides, the IC50 at 48 h in “in vitro” was above 188 µM.

On to `Cc1cc(/C=C/C#N)cc(C)c1Nc1ccnc(Nc2ccc(C#N)cc2)n1` [RPV, rilpivirine, reference compound], for which the results for the IC50 (in the data set on A549 (Lung carcinoma) [5]; in data set [18]; at HIV-1 RT [26]) were above 137 µM, 4.3 ± 0.5 µM and 0.063 µM, respectively. Moreover, the Percentage cytotoxicity came to 14% in data set [7] and 42% in the data set on A549 (Lung carcinoma) [14]. Further, at HIV-1 RT [26] (read-out: Inhibitory activity (%) against HIV-1 RT), the inhibition at 1 µM amounted to 97.1%. This molecule returned an IC50 at 48 h in the data set “in vitro” above 137 µM.
